Legend:
[1] = Phase III clinical study of an 8-hour advance in usual bedtime (jet lag disorder circadian challenge); assay type: in vivo, human
From the text: In the course of the trial, volunteers are subjected to a circadian challenge of an 8-hour advance in their usual bedtime, consistent with the circadian challenge induced in travelers crossing eight time zones (e.g., Los Angeles to London or Washington, DC to Moscow) and typically causing jet lag disorder.
The pre-specified primary endpoint used for this purpose is the amount of sleep time in the first two thirds of the night. Secondary endpoints include measures of various sleep parameters-total sleep time (TST), latency to persistent sleep (LPS), and wake after sleep onset (WASO)-as well as next day alertness, measured using the Karolinska Sleepiness Scale (KSS) and Visual Analog Scale (VAS).

[2] = Two-phase transatlantic travel study (jet lag, five or eight time zones); assay type: in vivo, human; details: for Objective TST2/3 Night 3, change from baseline: 20 mg for three consecutive nights prior to bedtime; for Objective TST2/3 Night 3, change from baseline / Objective TST2/3 All 3 nights, change from baseline: treated travel vs baseline observational travel
From the text: A two-phase transatlantic travel study of 25 subjects (tasimelteon n=13, placebo n=12) comprises a first phase that is an observational travel study to collect baseline data, and a second phase that is a treatment phase. Participants in the study travel either five or eight time zones from Washington, DC to London (five time zones) or San Francisco or Los Angeles to London (eight time zones). Participants stay at their destination for three nights and four days and during randomization receive 20 mg of tasimelteon for three consecutive nights prior to their bedtime. Efficacy is monitored by PSG as well as sleep and wake questionnaire scales.
The primary endpoint of the study is TST for the first 2/3 of the night(s) most likely to be disrupted. These are, from Table 2, Night 3, followed by Night 1 and Night 2.
Measures of global function, including Patient Global Impression of Severity (PGI-S) and KSS also favor tasimeltcon.

[3] = 20 mg dose, 8-hour bedtime advance, difference from placebo
[4] = 20 mg dose, 8-hour bedtime advance, treatment group value
[5] = 8-hour phase advance, difference from placebo
[6] = 8-hour phase advance, treatment group value
[7] = 20 mg for three consecutive nights, Post-Sleep Questionnaire
[8] = 20 mg for three consecutive nights, difference from placebo
[9] = Post-Sleep Questionnaire, difference from placebo

CCC(=O)NC[C@@H]1C[C@H]1c1cccc2c1CCO2 [Hetlioz ®, tasimelteon]
PSG TST2/3 (sleep time in first two thirds of the night, primary endpoint) ([1]; 20 mg dose, 8-hour bedtime advance, healthy volunteers, treatment group value): 216.4 min | KSS (1-9) average, next day alertness ([1]; 20 mg dose, 8-hour bedtime advance, Karolinska Sleepiness Scale, treatment group value): 4.0 | VAS (0-100) average, next day alertness ([1]; 20 mg dose, 8-hour bedtime advance, Visual Analog Scale, treatment group value): 60.8 | KSS (1-9) average, Diff vs placebo [1, 3]: −0.53 | PSG LPS, Diff vs placebo [1, 3]: -15.08 min | PSG TST2/3, Diff vs placebo [1, 3]: 60.31 min | PSG TSTfull, Diff vs placebo [1, 3]: 85.46 min | PSG WASO, Diff vs placebo [1, 3]: -74.58 min | VAS (0-100) average, Diff vs placebo [1, 3]: 6.59 | PSG TSTfull, Diff vs placebo ([1]; 20 mg dose, 8-hour bedtime advance, difference from placebo, listed as tasimelteon): 85 min | PSG LPS (latency to persistent sleep) [1, 4]: 21.8 min | PSG TSTfull (total sleep time) [1, 4]: 315.8 min | PSG WASO (wake after sleep onset) [1, 4]: 144.6 min | PSG REMTotal, Difference vs placebo [1, 5]: 13.7 min | REMAccumulate, Difference vs placebo [1, 5]: -53.3 min | REMAchieved, Difference vs placebo [1, 5]: 24.5% | PSG REMTotal (total REM sleep period) [1, 6]: 48.9 min | REMAccumulate (time required to accumulate 30 minutes of REM sleep) [1, 6]: 318.7 min | REMAchieved [1, 6]: 76.1% | Objective TST2/3 Night 3, change from baseline ([2]; listed as HETLIOZ ®): 76.2 min | Objective TST2/3 Night 3, change from baseline ([2]; listed as Tasimelteon): 76 min | Global measures KSS Day 4, change from baseline ([2]; 20 mg for three consecutive nights, Karolinska Sleepiness Scale): −1.69 | Global measures PGI-S Day 3, change from baseline ([2]; 20 mg for three consecutive nights, Patient Global Impression of Severity): −0.71 | Subjective Sleep Latency Night 3, change from baseline [2, 7]: −20.6 | Subjective Sleep Quality Night 3, change from baseline [2, 7]: 1.31 | Subjective TSTFull All 3 Nights, change from baseline [2, 7]: 240.0 | Subjective TSTFull Night 3, change from baseline [2, 7]: 111.9 | Subjective WASO Night 3, change from baseline [2, 7]: −81.1 | Objective TST2/3 All 3 nights, change from baseline, Difference vs placebo [2, 8]: 90.6 min | Objective TST2/3 Night 3, change from baseline, Difference vs placebo [2, 8]: 34.8 min | Objective TST2/3 All 3 nights, change from baseline ([2]; 20 mg for three consecutive nights, listed as HETLIOZ ®): 131.4 min | Objective TST2/3 All 3 nights, change from baseline ([2]; 20 mg for three consecutive nights, listed as Tasimelteon): 131 min | Global measures KSS Day 4, change from baseline, Difference vs placebo ([2]; Karolinska Sleepiness Scale, difference from placebo): −1.00 | Global measures PGI-S Day 3, change from baseline, Difference vs placebo ([2]; Patient Global Impression of Severity, difference from placebo): −0.63 | Subjective Sleep Latency Night 3, change from baseline, Difference vs placebo [2, 9]: −26.5 | Subjective Sleep Quality Night 3, change from baseline, Difference vs placebo [2, 9]: 0.95 | Subjective TSTFull All 3 Nights, change from baseline, Difference vs placebo [2, 9]: 174.9 | Subjective TSTFull Night 3, change from baseline, Difference vs placebo [2, 9]: 78.5 | Subjective WASO Night 3, change from baseline, Difference vs placebo [2, 9]: −56.4
